Data taken from ChEMBL document CHEMBL1201862, “PubChem BioAssay data set” (2004).
Activity calls are given as the source filed them.

How the values were obtained:
[1] = HIV-1 Env-mediated cell fusion inhibitors, dose response, CCR5-tropic Env (AID 2279); type: functional
[2] = NIH-3T3 fibroblast cytotoxicity, dose response, cytotoxicity control, cell-based, fluorescence, Alamar Blue, secondary assay (AID 2327); type: functional;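 further: NIH-3T3 mouse fibroblasts cultured with fluconazole at 8 µg/mL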
[3] = biological target: T1, Serine/threonine-protein phosphatase (Candida dubliniensis (strain CD36 / CBS 7987 / NCPF 3949 / NRRLY-17841) (Yeast), UniProt B9W6M3); assay: calcineurin pathway inhibitors in yeast reporter, dose response, S. cerevisiae, CDRE-lacZ, luminescence, secondary (AID 2388); type: functional, cell-based;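 further: yeast reporter cells carrying a calcineurin-responsive lacZ construct stimulated with calcium chloride; luminescent beta-galactosidase reporter signal in whole cells rather than isolated phosphatase activity; potency for inhibition where a drop in reporter signal means calcineurin blockade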
T1 sequence (B9W6M3 whole entry): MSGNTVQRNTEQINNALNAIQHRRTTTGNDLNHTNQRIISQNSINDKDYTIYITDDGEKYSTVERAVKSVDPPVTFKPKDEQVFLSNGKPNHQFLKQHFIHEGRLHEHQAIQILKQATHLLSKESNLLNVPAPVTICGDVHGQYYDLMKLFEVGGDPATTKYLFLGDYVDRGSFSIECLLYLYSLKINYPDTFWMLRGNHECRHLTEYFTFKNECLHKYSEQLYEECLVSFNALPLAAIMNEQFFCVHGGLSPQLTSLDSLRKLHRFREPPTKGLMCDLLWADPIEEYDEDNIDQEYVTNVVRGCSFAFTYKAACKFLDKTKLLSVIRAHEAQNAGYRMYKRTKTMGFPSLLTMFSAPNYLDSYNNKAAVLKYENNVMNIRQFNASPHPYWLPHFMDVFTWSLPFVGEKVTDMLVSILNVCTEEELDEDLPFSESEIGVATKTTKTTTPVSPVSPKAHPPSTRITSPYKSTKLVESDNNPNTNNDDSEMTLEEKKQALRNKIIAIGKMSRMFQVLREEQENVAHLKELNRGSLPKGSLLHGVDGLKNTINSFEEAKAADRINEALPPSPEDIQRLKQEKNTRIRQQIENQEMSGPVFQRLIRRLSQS

[4] = biological target: Large T antigen (Simian virus 40, UniProt P03070); type: functional, Betapolyomavirus macacae;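 further: Confirmatory-stage PubChem screen for compounds that inhibit SV40 T antigen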
[5] = C. albicans growth with fluconazole, confirmation, fluorescence, retest (AID 2467); type: functional, cell-based
[6] = biological target: ATP-dependent molecular chaperone HSP82 (Candida albicans (strain WO-1) (Yeast), UniProt C4YTQ8); assay: loss of DOC-induced GRE-beta-galactosidase reporter signal, dose response, Hsp90 inhibitor project, S. cerevisiae, luminescence (AID 2400); type: functional, cell-based;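 further: beta-galactosidase luminescence from glucocorticoid response element reporter as proxy for Hsp90 function; inhibitor potency where signal loss means Hsp90 inhibition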
[7] = biological target: T2, Streptokinase A (Streptococcus pyogenes serotype M1, UniProt P10520); assay: S. pyogenes streptokinase expression inhibitors, potency, dose response, plasminogen activation absorbance, OD405 (AID 1914); type: functional, Streptococcus pyogenes M1 GAS;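 further: secreted streptokinase activity via plasminogen activation per viability signal from cell pellet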
T2 sequence (P10520 whole entry): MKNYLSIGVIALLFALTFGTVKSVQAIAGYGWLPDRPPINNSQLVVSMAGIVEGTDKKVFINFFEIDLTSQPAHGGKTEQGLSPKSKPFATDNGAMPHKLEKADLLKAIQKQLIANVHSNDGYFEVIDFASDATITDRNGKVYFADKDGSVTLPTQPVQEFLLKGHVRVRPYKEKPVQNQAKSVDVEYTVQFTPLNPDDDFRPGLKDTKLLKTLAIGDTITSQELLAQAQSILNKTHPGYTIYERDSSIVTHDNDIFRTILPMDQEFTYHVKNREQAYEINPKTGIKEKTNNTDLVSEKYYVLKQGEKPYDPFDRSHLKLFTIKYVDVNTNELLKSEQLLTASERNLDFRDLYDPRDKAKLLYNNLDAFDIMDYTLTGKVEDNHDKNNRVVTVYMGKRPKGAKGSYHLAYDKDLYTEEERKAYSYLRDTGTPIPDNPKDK

[8] = biological target: T3, Neuropeptide Y receptor type 2 (Homo sapiens, UniProt P49146); assay: Fluorescence-based counterscreen for agonists of NPY-Y1: cell-based high-throughput dose response assay for agonists of NPY-Y2.; type: functional
T3 sequence (P49146 whole entry): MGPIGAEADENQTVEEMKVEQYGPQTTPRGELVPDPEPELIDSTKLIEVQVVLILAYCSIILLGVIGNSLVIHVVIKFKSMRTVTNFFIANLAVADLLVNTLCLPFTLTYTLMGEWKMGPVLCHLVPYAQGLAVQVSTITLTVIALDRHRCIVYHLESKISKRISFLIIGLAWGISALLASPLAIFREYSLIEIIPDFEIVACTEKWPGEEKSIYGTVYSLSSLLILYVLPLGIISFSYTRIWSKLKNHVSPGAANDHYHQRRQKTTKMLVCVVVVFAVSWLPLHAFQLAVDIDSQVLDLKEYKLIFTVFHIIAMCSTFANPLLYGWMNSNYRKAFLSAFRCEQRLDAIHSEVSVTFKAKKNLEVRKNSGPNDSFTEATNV

[9] = system: HEK293; assay: Fluorescence-based counterscreen for potentiators or agonists of NPY-Y1: cell-based high-throughput dose response assay for inhibitors of cyclic nucleotide gated ion channel (CNGC) activity. In this assay, the parental HEK293 cell line transfected with a cyclic-nucleotide gated ion channel (CNGC)-based cAMP sensor is used to measure inhibition of isoproterenol-induced CNGC …; type: functional; settings: Homo sapiens
[10] = biological target: T3, Neuropeptide Y receptor type 2; assay: Fluorescence counterscreen for potentiators or agonists of NPY-Y1: Cell-based high-throughput dose response assay for potentiators or agonists of NPY-Y2.; type: functional
[11] = system: Streptococcus sp. 'group A'; assay: growth inhibition of control SK(-) GAS strain, dose response, counter-screen for streptokinase expression inhibitor project, luminescence, kanamycin, BacTiterGlo, confirmation (AID 1900); type: functional, organism-based
[12] = biological target: T4, Neuropeptide Y receptor type 1 (Homo sapiens, UniProt P25929); assay: Fluorescence-based dose response cell-based high-throughput screening assay for potentiators or agonists of NPY-Y1.; type: functional
T4 sequence (P25929 whole entry): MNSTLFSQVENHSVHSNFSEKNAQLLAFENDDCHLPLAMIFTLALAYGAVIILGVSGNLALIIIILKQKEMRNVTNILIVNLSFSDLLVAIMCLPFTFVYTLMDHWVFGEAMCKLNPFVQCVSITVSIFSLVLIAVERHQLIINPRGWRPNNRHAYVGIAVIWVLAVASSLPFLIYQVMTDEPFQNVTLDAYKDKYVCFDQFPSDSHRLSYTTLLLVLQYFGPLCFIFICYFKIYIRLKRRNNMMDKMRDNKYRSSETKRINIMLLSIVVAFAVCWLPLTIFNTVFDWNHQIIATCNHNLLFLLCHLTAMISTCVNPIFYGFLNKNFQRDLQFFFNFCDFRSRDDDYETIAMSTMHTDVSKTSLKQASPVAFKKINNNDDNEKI

[13] = system: Streptococcus; assay: Group A Streptococcus viability loss, dose response, counter-screen for streptokinase expression inhibitor project, luminescence, BacTiterGlo (AID 1915); type: functional, organism-based;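 further: potency for reduction of bacterial viability or growth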
[14] = M. tuberculosis H37Rv growth inhibitors, H37Rv strain (AID 1626); type: functional
[15] = cytotoxicity in HPDE-C7 cells, cell-based, fluorescence, HTS (AID 430); type: functional; settings: Homo sapiens
[16] = biological target: NS3 (Hepatitis C virus, UniProt A3EZJ3); assay: PubChem AID 2173; set-up: species or system Hepacivirus hominis
[17] = cytotoxicity in KRAS-transformed pancreatic duct cells, primary screen, cell-based, fluorescence, HTS (AID 431); type: functional; settings: Homo sapiens;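 further: cell line used: HPDE-C7K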
[18] = system: HeLa; assay: HeLa cell cytotoxicity, dose response, cytotoxicity control, 24 h, cherry-picked samples (AID 504726); type: functional, cell-based; settings: Homo sapiens;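 further: potency for cytotoxicity as loss of luminescence signal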
[19] = biological target: Cytochrome P450 2D6 (Homo sapiens, UniProt P10635); assay: qHTS Assay for Inhibitors and Substrates of Cytochrome P450 2D6. [Related pubchem assays: 410 ]; type: ADME; settings: read-out: Potency
Cytochrome P450 2D6, sequence (P10635 whole entry): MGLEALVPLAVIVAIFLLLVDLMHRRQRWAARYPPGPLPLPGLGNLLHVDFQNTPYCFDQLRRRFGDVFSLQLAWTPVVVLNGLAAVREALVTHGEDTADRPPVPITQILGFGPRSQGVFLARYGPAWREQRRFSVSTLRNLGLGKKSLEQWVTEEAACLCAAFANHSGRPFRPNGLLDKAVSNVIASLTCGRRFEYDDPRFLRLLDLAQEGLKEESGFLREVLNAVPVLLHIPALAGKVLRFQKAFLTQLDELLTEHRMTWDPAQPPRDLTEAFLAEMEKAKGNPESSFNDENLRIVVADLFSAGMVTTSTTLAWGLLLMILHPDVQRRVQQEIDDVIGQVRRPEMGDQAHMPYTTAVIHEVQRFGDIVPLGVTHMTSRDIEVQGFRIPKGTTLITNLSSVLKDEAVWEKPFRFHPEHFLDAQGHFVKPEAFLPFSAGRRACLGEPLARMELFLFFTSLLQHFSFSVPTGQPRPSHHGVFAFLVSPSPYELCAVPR

ATP-dependent molecular chaperone HSP82, sequence (C4YTQ8 whole entry): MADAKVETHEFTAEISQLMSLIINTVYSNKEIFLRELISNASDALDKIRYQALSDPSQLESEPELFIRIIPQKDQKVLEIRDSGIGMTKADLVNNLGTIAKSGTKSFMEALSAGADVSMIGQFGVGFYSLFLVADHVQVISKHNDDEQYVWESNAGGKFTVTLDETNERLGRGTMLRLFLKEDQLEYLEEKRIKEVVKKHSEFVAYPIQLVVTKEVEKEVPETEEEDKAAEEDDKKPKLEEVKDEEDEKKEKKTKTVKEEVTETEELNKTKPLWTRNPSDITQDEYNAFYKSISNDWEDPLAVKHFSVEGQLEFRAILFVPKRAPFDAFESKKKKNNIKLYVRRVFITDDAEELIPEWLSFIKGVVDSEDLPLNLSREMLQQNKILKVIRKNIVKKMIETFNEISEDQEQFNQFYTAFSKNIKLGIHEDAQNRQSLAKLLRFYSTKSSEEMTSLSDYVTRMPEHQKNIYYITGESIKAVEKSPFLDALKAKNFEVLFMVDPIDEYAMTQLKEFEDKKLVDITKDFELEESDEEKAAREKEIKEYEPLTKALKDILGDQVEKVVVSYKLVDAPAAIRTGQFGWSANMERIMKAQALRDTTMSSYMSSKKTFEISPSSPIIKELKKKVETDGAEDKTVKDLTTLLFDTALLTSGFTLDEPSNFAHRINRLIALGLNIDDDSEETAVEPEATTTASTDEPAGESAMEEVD
NS3, sequence (A3EZJ3 whole entry): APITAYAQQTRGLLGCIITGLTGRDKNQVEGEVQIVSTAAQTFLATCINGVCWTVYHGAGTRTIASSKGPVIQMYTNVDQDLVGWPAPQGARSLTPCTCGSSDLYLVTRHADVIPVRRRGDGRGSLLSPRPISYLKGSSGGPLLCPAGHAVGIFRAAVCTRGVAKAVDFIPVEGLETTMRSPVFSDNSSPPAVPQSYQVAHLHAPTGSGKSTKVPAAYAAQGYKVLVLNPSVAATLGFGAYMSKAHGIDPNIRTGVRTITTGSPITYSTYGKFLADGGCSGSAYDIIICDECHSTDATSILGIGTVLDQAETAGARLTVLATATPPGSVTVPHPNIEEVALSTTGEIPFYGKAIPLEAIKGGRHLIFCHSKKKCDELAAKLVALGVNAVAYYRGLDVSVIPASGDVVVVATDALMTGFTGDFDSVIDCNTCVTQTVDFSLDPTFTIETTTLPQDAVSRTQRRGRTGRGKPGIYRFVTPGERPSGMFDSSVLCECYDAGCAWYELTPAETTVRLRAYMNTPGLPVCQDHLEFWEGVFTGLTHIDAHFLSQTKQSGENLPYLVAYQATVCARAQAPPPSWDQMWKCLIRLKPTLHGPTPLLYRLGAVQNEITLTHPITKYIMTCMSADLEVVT
Large T antigen, sequence (P03070 whole entry): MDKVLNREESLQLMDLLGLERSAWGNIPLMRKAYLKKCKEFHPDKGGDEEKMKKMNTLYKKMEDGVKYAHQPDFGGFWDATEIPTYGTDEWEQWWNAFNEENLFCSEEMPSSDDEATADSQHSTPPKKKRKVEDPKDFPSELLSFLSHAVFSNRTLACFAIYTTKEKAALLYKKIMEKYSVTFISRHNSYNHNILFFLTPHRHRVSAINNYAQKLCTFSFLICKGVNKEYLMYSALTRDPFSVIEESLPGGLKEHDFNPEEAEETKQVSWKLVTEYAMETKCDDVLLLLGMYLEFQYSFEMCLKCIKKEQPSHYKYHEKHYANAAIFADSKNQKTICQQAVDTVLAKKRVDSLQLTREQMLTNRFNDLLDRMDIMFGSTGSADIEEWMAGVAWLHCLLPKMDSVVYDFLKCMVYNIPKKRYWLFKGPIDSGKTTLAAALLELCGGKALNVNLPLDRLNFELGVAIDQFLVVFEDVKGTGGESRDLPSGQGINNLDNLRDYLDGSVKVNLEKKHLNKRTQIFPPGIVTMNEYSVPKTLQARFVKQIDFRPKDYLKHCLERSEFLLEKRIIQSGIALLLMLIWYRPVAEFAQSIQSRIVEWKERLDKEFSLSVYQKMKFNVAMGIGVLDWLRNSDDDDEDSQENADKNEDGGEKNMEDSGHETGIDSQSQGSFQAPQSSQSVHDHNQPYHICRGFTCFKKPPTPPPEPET

With `O=C(N/N=C/c1cc(Br)c(O)c(Br)c1)c1cc2c(ccc3ccccc32)o1` the IC50 [1] was > 50 µM (active), the EC50 [2] was 64.7 µM (active) and the EC50 [3] was 2.58 µM (active). For the same molecule, the IC50 [4] was 19.9 µM (active), the EC50 [5] was 1.45 µM (active) and the EC50 [6] was 0.763 µM (active).
With `Clc1ccc(-n2c(-c3cccc(Br)c3)nc3nc4ccccc4nc32)cc1` the EC50 [7] was > 150 µM (not active), the EC50 [8] was 2.98 µM (active) and the IC50 [9] was 5.7 µM (active). The EC50 [10] was 12 µM (not active), the EC50 [11] was 1.58 µM (active) and the EC50 [12] was 10.1 µM (not active). The EC50 [13] was 79.4 µM (active) and the IC50 [14] was > 100 µM (active).
With `O=C(c1ccc2nc(-c3ccco3)c(-c3ccco3)nc2c1)N1CCN(c2ccccc2)CC1` the EC50 [15] was 18 µM (active), the IC50 [16] was 19.7 µM (not active) and the EC50 [17] was > 20 µM (not active).
With `O=C(/C=C/c1ccco1)Nc1ccccc1C(=O)Nc1cccc(C(=O)O)c1` the AC50 [18] was 180 µM (active).
In the case of `COC(=O)C1C(C)OC(=O)NC1c1ccccc1` (centres undefined), the AC50 [19] is reported as 3.16 µM (inconclusive).
